According to PubChem BioAssay (NCI):
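Results reflect a 48-hour exposure of cells in 96-well plates to compound at five concentrations. At the GI50, growth is halved. The concentration for full growth arrest is given as TGI.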

How the values were obtained:
Assay in all cases: DTP human tumour cell line panel, 48 h
MCF7 breast = tested on: MCF7 breast
UACC-257 melanoma = tested on: UACC-257 melanoma
UO-31 renal = tested on: UO-31 renal
SNB-75 CNS = tested on: SNB-75 CNS
KM12 colon = tested on: KM12 colon
OVCAR-3 ovarian = tested on: OVCAR-3 ovarian
K-562 leukemia = tested on: K-562 leukemia
CCRF-CEM leukemia = tested on: CCRF-CEM leukemia
CAKI-1 renal = tested on: CAKI-1 renal
SK-MEL-2 melanoma = tested on: SK-MEL-2 melanoma
SW-620 colon = tested on: SW-620 colon
HL-60(TB) leukemia = tested on: HL-60(TB) leukemia
MALME-3M melanoma = tested on: MALME-3M melanoma
HCT-116 colon = tested on: HCT-116 colon
SF-295 CNS = tested on: SF-295 CNS
M14 melanoma = tested on: M14 melanoma
NCI/ADR-RES ovarian = tested on: NCI/ADR-RES ovarian
T-47D breast = tested on: T-47D breast
SNB-19 CNS = tested on: SNB-19 CNS
A498 renal = tested on: A498 renal
NCI-H460 lung = tested on: NCI-H460 lung
NCI-H23 lung = tested on: NCI-H23 lung
HS 578T breast = tested on: HS 578T breast
RXF 393 renal = tested on: RXF 393 renal
EKVX NSCLC = tested on: EKVX NSCLC
COLO 205 colon = tested on: COLO 205 colon
SK-MEL-5 melanoma = tested on: SK-MEL-5 melanoma
MDA-MB-468 breast = tested on: MDA-MB-468 breast
SK-MEL-28 melanoma = tested on: SK-MEL-28 melanoma
SK-OV-3 ovarian = tested on: SK-OV-3 ovarian
HOP-62 NSCLC = tested on: HOP-62 NSCLC
TK-10 renal = tested on: TK-10 renal
SF-268 CNS = tested on: SF-268 CNS
SF-539 CNS = tested on: SF-539 CNS
HT29 colon = tested on: HT29 colon
MDA-MB-231 breast = tested on: MDA-MB-231 breast
OVCAR-4 ovarian = tested on: OVCAR-4 ovarian
ACHN renal = tested on: ACHN renal
HCT-15 colon = tested on: HCT-15 colon
MDA-MB-435 = tested on: MDA-MB-435
OVCAR-8 ovarian = tested on: OVCAR-8 ovarian
NCI-H522 lung = tested on: NCI-H522 lung
HCC-2998 colon = tested on: HCC-2998 colon
DU-145 prostate = tested on: DU-145 prostate
LOX IMVI melanoma = tested on: LOX IMVI melanoma
UACC-62 melanoma = tested on: UACC-62 melanoma
HOP-92 NSCLC = tested on: HOP-92 NSCLC
BT-549 breast = tested on: BT-549 breast
A549 NSCLC = tested on: A549 NSCLC
786-0 renal = tested on: 786-0 renal
SN12C renal = tested on: SN12C renal
MOLT-4 leukemia = tested on: MOLT-4 leukemia
U251 CNS = tested on: U251 CNS
IGROV1 ovarian = tested on: IGROV1 ovarian
NCI-H226 lung = tested on: NCI-H226 lung
OVCAR-5 ovarian = tested on: OVCAR-5 ovarian

**Q.** What does the source list for CCn1c(SCC(=O)Nc2ccc(-c3nc4ccccc4[nH]3)cc2)nc2ccccc2c1=O?
**A.** GI50 (MCF7 breast): 1550 nM; TGI (MCF7 breast): 3000 nM; GI50 (UACC-257 melanoma): 1790 nM; TGI (UACC-257 melanoma): 3450 nM; GI50 (UO-31 renal): 1530 nM; TGI (UO-31 renal): 2880 nM; GI50 (SNB-75 CNS): 1290 nM; TGI (SNB-75 CNS): 2610 nM; GI50 (KM12 colon): 2500 nM; TGI (KM12 colon): 6490 nM; GI50 (OVCAR-3 ovarian): 1780 nM; TGI (OVCAR-3 ovarian): 3280 nM; GI50 (K-562 leukemia): 2910 nM; TGI (K-562 leukemia): > 100000 nM; GI50 (CCRF-CEM leukemia): 25000 nM; TGI (CCRF-CEM leukemia): > 100000 nM; GI50 (CAKI-1 renal): 1780 nM; TGI (CAKI-1 renal): 3290 nM; GI50 (SK-MEL-2 melanoma): 1910 nM; TGI (SK-MEL-2 melanoma): 3950 nM; GI50 (SW-620 colon): 1870 nM; TGI (SW-620 colon): 3500 nM; GI50 (HL-60(TB) leukemia): 2460 nM; TGI (HL-60(TB) leukemia): 6020 nM; GI50 (MALME-3M melanoma): 1640 nM; TGI (MALME-3M melanoma): 3020 nM; GI50 (HCT-116 colon): 1750 nM; TGI (HCT-116 colon): 3130 nM; GI50 (SF-295 CNS): 1670 nM; TGI (SF-295 CNS): 3090 nM; GI50 (M14 melanoma): 1700 nM; TGI (M14 melanoma): 3150 nM; GI50 (NCI/ADR-RES ovarian): 1820 nM; TGI (NCI/ADR-RES ovarian): 3650 nM; GI50 (T-47D breast): 1710 nM; TGI (T-47D breast): 3490 nM; GI50 (SNB-19 CNS): 1750 nM; TGI (SNB-19 CNS): 3310 nM; GI50 (A498 renal): 1610 nM; TGI (A498 renal): 3180 nM; GI50 (NCI-H460 lung): 1770 nM; TGI (NCI-H460 lung): 3290 nM; GI50 (NCI-H23 lung): 2040 nM; TGI (NCI-H23 lung): 4730 nM; GI50 (HS 578T breast): 2060 nM; TGI (HS 578T breast): 4660 nM; GI50 (RXF 393 renal): 1710 nM; TGI (RXF 393 renal): 3190 nM; GI50 (EKVX NSCLC): 1840 nM; TGI (EKVX NSCLC): 3900 nM; GI50 (COLO 205 colon): 2300 nM; TGI (COLO 205 colon): 4270 nM; GI50 (SK-MEL-5 melanoma): 1780 nM; TGI (SK-MEL-5 melanoma): 3330 nM; GI50 (MDA-MB-468 breast): 1560 nM; TGI (MDA-MB-468 breast): 3040 nM; GI50 (SK-MEL-28 melanoma): 1680 nM; TGI (SK-MEL-28 melanoma): 3050 nM; GI50 (SK-OV-3 ovarian): 1930 nM; TGI (SK-OV-3 ovarian): 3920 nM; GI50 (HOP-62 NSCLC): 1700 nM; TGI (HOP-62 NSCLC): 3180 nM; GI50 (TK-10 renal): 1800 nM; TGI (TK-10 renal): 3260 nM; GI50 (SF-268 CNS): 2060 nM; TGI (SF-268 CNS): 4560 nM; GI50 (SF-539 CNS): 1760 nM; TGI (SF-539 CNS): 3150 nM; GI50 (HT29 colon): 1990 nM; TGI (HT29 colon): 4260 nM; GI50 (MDA-MB-231 breast): 1820 nM; TGI (MDA-MB-231 breast): 3350 nM; GI50 (OVCAR-4 ovarian): 1750 nM; TGI (OVCAR-4 ovarian): 3200 nM; GI50 (ACHN renal): 1700 nM; TGI (ACHN renal): 3070 nM; GI50 (HCT-15 colon): 1720 nM; TGI (HCT-15 colon): 3300 nM; GI50 (MDA-MB-435): 1730 nM; TGI (MDA-MB-435): 3110 nM; GI50 (OVCAR-8 ovarian): 2090 nM; TGI (OVCAR-8 ovarian): 4600 nM; GI50 (NCI-H522 lung): 1770 nM; TGI (NCI-H522 lung): 3510 nM; GI50 (HCC-2998 colon): 2040 nM; TGI (HCC-2998 colon): 4890 nM; GI50 (DU-145 prostate): 2020 nM; TGI (DU-145 prostate): 3990 nM; GI50 (LOX IMVI melanoma): 1700 nM; TGI (LOX IMVI melanoma): 3100 nM; GI50 (UACC-62 melanoma): 1560 nM; TGI (UACC-62 melanoma): 2930 nM; GI50 (HOP-92 NSCLC): 1660 nM; TGI (HOP-92 NSCLC): 4050 nM; GI50 (BT-549 breast): 1500 nM; TGI (BT-549 breast): 2860 nM; GI50 (A549 NSCLC): 1740 nM; TGI (A549 NSCLC): 3590 nM; GI50 (786-0 renal): 1650 nM; TGI (786-0 renal): 3020 nM; GI50 (SN12C renal): 1470 nM; TGI (SN12C renal): 2820 nM; GI50 (MOLT-4 leukemia): 4210 nM; TGI (MOLT-4 leukemia): > 100000 nM; GI50 (U251 CNS): 1750 nM; TGI (U251 CNS): 3390 nM; GI50 (IGROV1 ovarian): 1690 nM; TGI (IGROV1 ovarian): 3330 nM; GI50 (NCI-H226 lung): 1670 nM; TGI (NCI-H226 lung): 3600 nM; GI50 (OVCAR-5 ovarian): 1480 nM; TGI (OVCAR-5 ovarian): 2980 nM
